Assay [1] concerns the target T1, RXFP1 (Homo sapiens, UniProt Q9HBX9).
T1 sequence (Q9HBX9 1-757): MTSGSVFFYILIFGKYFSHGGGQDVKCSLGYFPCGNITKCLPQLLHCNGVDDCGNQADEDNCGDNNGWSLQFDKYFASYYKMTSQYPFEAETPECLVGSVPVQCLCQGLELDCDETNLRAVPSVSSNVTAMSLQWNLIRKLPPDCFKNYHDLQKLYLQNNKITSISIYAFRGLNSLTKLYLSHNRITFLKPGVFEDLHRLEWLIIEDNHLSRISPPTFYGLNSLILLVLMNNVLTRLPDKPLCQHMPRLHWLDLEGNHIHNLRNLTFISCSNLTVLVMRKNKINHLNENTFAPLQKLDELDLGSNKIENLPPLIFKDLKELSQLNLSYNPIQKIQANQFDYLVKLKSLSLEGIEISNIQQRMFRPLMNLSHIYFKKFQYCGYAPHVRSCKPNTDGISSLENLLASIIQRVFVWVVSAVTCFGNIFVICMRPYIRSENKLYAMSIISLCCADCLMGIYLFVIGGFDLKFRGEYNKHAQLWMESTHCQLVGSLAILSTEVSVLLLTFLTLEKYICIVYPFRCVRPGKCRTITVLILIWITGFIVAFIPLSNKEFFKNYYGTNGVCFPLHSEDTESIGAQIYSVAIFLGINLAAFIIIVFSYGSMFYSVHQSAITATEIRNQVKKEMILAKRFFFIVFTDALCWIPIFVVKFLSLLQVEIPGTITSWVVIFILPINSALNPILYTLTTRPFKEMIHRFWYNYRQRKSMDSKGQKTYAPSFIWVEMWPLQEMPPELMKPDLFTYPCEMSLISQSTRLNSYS
In words: p38MAPK phosphorylation (Surefire) in HEK-RXFP1 cells. On the set-up: expressed in transfected cells; host or cells: HEK293T / HEK293 cells stably expressing RXFP1 (HEK-RXFP1). Type of assay: cell-based. The procedure:
(§1) p-ERK1/2, p-p38MAPK and p-JNK1/2 was measured using the Surefire ERK, p38 and JNK kits (TGR BioSciences, Australia) as described previously, [16]. Briefly, HEK-RXFP1 cells were plated into 96-well plates (5 × 10^4 cells/well) and primary cells grown in 24-well plates (1 × 10^5 cells/well) overnight to achieve a confluent monolayer. Prior to stimulation, HEK293 cells were serum-starved with DMEM containing 0.5% (v/v) FBS and primary cells in M199 medium for 4–6 hours. […] Levels of p-ERK1/2, p-p38MAPK and p-JNK1/2/3 were detected as per manufacturer’s instructions (Perkin-Elmer, Australia).

Assay [2] deals with T1, RXFP1. In words: p38MAPK phosphorylation (Surefire) in human primary vascular cells. It is filed as cell-based. On the set-up: In human primary vascular endothelial and smooth muscle cells that endogenously express RXFP1. To be noted: 15 min. As to the method: as §1
Assay [3] deals with T1, RXFP1. In words: ERK1/2 phosphorylation (Surefire) in HEK-RXFP1 cells. Type of assay: cell-based. On the set-up: expressed in transfected cells; host or cells: HEK293T / HEK293 cells stably expressing RXFP1 (HEK-RXFP1). To be noted: ML290 10 μM, 10 min pretreatment. As to the method: as §1
Assay [4] relates to p-Smad2. In words: Smad2 phosphorylation assay in human cardiac fibroblasts. It is filed as cell-based. The settings on record: 72 hours. As to the method:
Cells were serum-starved in M199 medium for 24 hours prior sample collection. Cells were used between passages 1–4, while all experiments were performed four separate times in duplicate. Levels of p-Smad2 and p-Smad3 were detected using Sure-fire kits according to the manufacturer’s instructions (Perkin-Elmer, Australia).

Assay [5] has as its target T1, RXFP1. As to the kind of experiment: 125I-H2 relaxin radioligand binding in HEK-RXFP1 cells. On the set-up: expressed in transfected cells; host or cells: HEK293T / HEK293 cells stably expressing RXFP1 (HEK-RXFP1). The procedure:
Competition radioligand binding studies were performed in HEK-RXFP1 cells as described previously. […] After 90 min incubation at room temperature, the reaction was terminated with the removal of medium and washing with cold PBS. Cells were digested with 0.1 M NaOH and radioactivity counted on the γ-counter.

For assay [6], the target named is T1, RXFP1. As to the kind of experiment: 125I-H2 relaxin association and dissociation kinetic studies in HEK-RXFP1 cells. Type of assay: binding. On the set-up: expressed in transfected cells; host or cells: HEK293T / HEK293 cells stably expressing RXFP1 (HEK-RXFP1). The settings on record: ML290 1 μM. The procedure: Association and dissociation kinetic studies were performed using ^125I-H2 relaxin. Briefly, HEK-RXFP1 cells were plated in 96-well plates and allowed to adhere overnight. After rinsing with PBS, the cells were incubated at the given time intervals with 100pM of ^125I-H2 relaxin to measure the association rate. The dissociation rate of ML290 was calculated using ligand competition. […] The reactions were terminated by the removal of medium and washing with ice-cold PBS. Cells were digested using 0.1 M NaOH and radioactivity counted on the γ-counter.

Assay [7] concerns the target T1, RXFP1. In words: cAMP accumulation in HEK-RXFP1 cells. It is filed as cell-based. On the set-up: expressed in transfected cells; host or cells: HEK293T / HEK293 cells stably expressing RXFP1 (HEK-RXFP1). The settings on record: read-out: cAMP accumulation efficacy (Emax). As to the method:
cAMP and cGMP accumulation was determined as previously described, [16]. Briefly, HEK293 cells were plated in 96-well plates (5 × 10^4 cells/well) and human primary cells were plated into 24-well plates (1 × 10^5 cells/well) and grown overnight to achieve a confluent monolayer. Prior to stimulation, HEK cells were serum-starved in DMEM containing 0.5% FBS v/v and primary cells were serum-starved in M199 medium for 4–6 hours. Where appropriate, cells were pre-incubated with mSIRK (5 μM, 30 min), mSIRK control peptide L9A (5 μM, 30 min), gallein (100 μM, 30 min), Wortmannin (100 nM, 30 min), NF023 (10 μM, 30 min) and NF449 (10 μM, 30 min). Levels of cAMP and cGMP were detected according to the manufacturer’s instructions (Perkin-Elmer, Australia).

The structures appear in SMILES notation.

As for `CC(C)Oc1ccccc1C(=O)Nc1ccccc1C(=O)Nc1cccc(S(=O)(=O)C(F)(F)F)c1` [ML290, 2-Isopropoxy-N-(2-(3-(trifluoromethylsulfonyl)phenylcarbamoyl)phenyl) benzamide], the maximal response (Emax) in assay [1] (15 min, read-out: p-p38MAPK efficacy (Emax) (converted)) was 16.9%; in assay [2] (read-out: p-p38MAPK efficacy (Emax), HUASMC), 4.4%; in assay [2] (read-out: p-p38MAPK efficacy (Emax), HUVSMC), 2.7%; in assay [7], 113%. The “p38MAPK phosphorylation, time course” value in assay [1] (up to 45 min, H2 relaxin 100 nM, ML290 100 nM or 10 μM) is “increased p38MAPK phosphorylation”. Further, the “effect of pretreatment on maximum p-ERK1/2 response to relaxin” value in assay [3] is “significantly increased”. Moreover, the “effect on p-Smad2 levels” value in assay [4] (HCFs not treated with TGF-β1, H2 relaxin 0.1 μM, ML290 1 μM) is listed as “neither H2 relaxin (0.1 μM) nor ML290 (1 μM) significantly affected”. Also, in assay [4] (HCFs, TGF-β1 2 ng/ml + H2 relaxin 0.1 μM or ML290 1 μM), the “p-Smad2 in TGF-β1-stimulated cells” value was 1.58 ± 0.34 fold/basal. In addition, in assay [5] (125I-H2 relaxin 100pM, increased from 102.7 ± […]), the “125I-H2 relaxin specific binding to RXFP1 in presence of ML290” value was found to be 135.2 ± 6.5%. For the same compound, the “effect on the affinity of H2 relaxin” value in assay [5] (ML290 1 μM) is on record as “no significant effect”. The “effect on the association rate of 125I-H2 relaxin” value in assay [6] is “no significant effect”.

(Values after publication PMC5462828 (Scientific Reports, 2017).)
